From patent US11000033B2, “Ketone or oxime compound, and herbicide” (NISSAN CHEMICAL CORPORATION, priority 2014, dated 2021)

Tests used:
Format in all cases: in vivo
Scirpus juncoides [1] = test: Test Example 1: herbicidal activity, application before weed generation in submerged conditions (symbol B); settings: application herbicide amount 320 g/ha
In short: (§1)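 Greenhouse growth at 25–30 °C lasted 3 weeks after treatment, when each weed was graded 0–5 by herbicidal ratio. Treatment was a diluted emulsion applied to the water surface of 4 cm-submerged alluvial soil on the sowing day.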

Monochoria vaginalis = test: Test Example 1: herbicidal activity, application before weed generation in submerged conditions (symbol C); settings: application herbicide amount 320 g/ha
In short: as §1

Scirpus juncoides [2] = test: Test Example 2: herbicidal activity, application during weed generation in submerged conditions (symbol B); settings: Table 23; application herbicide amount 320 g/ha; grade 0-5 by criteria of Test Example 1
In short: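 Alluvial soil in pots was flooded to a 4 cm water depth and sown with a mix of the three weed species, then grown in a greenhouse at 25° C. to 30° C. At the one- to two-leaf stage, an emulsifiable formulation diluted in water to a set dose was applied to the water surface. Effects were scored visually 3 weeks later.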

Avena fatua = test: Test Example 4: herbicidal effect by soil treatment (symbol I); settings: application herbicide amount 320 g/ha
In short: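 Seeds were sown in sterilized diluvial soil, covered with about 1.5 cm of soil, and the soil surface was sprayed with a water-diluted emulsion of the compound at a predetermined rate. Plants grew in a greenhouse at 25° C. to 30° C.; effects were scored visually 3 weeks after application.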

corn [3] = test: Test Example 4: effect on crop by soil treatment (symbol c); settings: application herbicide amount 320 g/ha
In short: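 Diluvial soil (sterilized) in boxes; seeds placed spot-wise alongside weed species; ~1.5 cm covering soil. Greenhouse, 25–30° C.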

rice = test: Test Example 4: effect on crop by soil treatment (symbol b); settings: application herbicide amount 320 g/ha
In short: (§2)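 Crop seed is sown in spots together with several weed species in a box of sterilized diluvial soil. It is covered by about 1.5 cm of soil and kept in a greenhouse held between 25° C. and 30° C.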

Digitaria ciliaris = test: Test Example 5: herbicidal effect by foliage application, plastic box (symbol F); settings: 320 g/ha, 3 weeks after application
In short: (§3)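 Leaf-applied emulsion, water-diluted to a preset herbicide dose, on two-week-old seedlings raised in a 25° C. to 30° C. greenhouse; injury rated at 3 weeks using earlier criteria.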

Lolium multiflorum Lam. = test: Test Example 5: herbicidal effect by foliage application, plastic box (symbol K); settings: 320 g/ha, 3 weeks after application
In short: as §3

Chenopodium album = test: Test Example 5: herbicidal effect by foliage application, plastic box (symbol O); settings: 320 g/ha, 3 weeks after application
In short: as §3

Galium spurium = test: Test Example 5: herbicidal effect by foliage application, plastic box (symbol Q); settings: 320 g/ha, 3 weeks after application
In short: as §3

Veronica persica = test: Test Example 5: herbicidal effect by foliage application, plastic box (symbol R); settings: 320 g/ha, 3 weeks after application
In short: as §3

corn [4] = test: Test Example 5: effect on crop by foliage application, plastic box (symbol c); settings: 320 g/ha, 3 weeks after application
In short: (§4)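 Seeds were sown in spots in sterilized diluvial soil held in a plastic box 21 cm × 13 cm × 7 cm deep, covered with about 1.5 cm of soil, and grown in a greenhouse at 25° C. to 30° C.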

soybean = test: Test Example 5: effect on crop by foliage application, plastic box (symbol d); settings: 320 g/ha, 3 weeks after application
In short: as §4

rapeseed = test: Test Example 4: effect on crop by soil treatment (symbol g); settings: application herbicide amount 320 g/ha
In short: as §2

With `CC(CC1CC(O)=C(c2c(C)cc(C)cc2C)C1=O)=NOCc1ccccn1` (stereo not drawn) [1-022] the “Herbicidal effect grade, B: Scirpus juncoides” value (from here on “Herbicidal effect grade, B”) (Scirpus juncoides [1]) was 5 (Herbicidal ratio of 90% or more (almost completely withered)), the “Herbicidal effect grade, C: Monochoria vaginalis” value (“Herbicidal effect grade, C” for short) (Monochoria vaginalis) was 2 (Herbicidal ratio of 20% or higher and lower than 40%) and the “Herbicidal effect grade, B” value (Scirpus juncoides [2]) was 5 (Herbicidal ratio of 90% or more (almost completely withered)). For the same molecule, the “I (Avena fatua) herbicidal effect grade” value (Avena fatua) was 4 (Herbicidal ratio of 70% or higher and lower than 90%), the “c (corn) effect on crop grade” value (corn [3]) was 0 (Herbicidal ratio of 5% or lower (almost no effect)) and the “b (directly sowed rice plant) effect on crop grade” value (rice) was 5 (Herbicidal ratio of 90% or more (almost completely withered)). For the same molecule, the “F: Digitaria ciliaris, herbicidal effect grade” value (Digitaria ciliaris) was 5 (Herbicidal ratio of 90% or more (almost completely withered)), the “K: Lolium multiflorum Lam., herbicidal effect grade” value (Lolium multiflorum Lam.) was 5 (Herbicidal ratio of 90% or more (almost completely withered)) and the “O: Chenopodium album, herbicidal effect grade” value (Chenopodium album) was 3 (Herbicidal ratio of 40% or higher and lower than 70%). For the same molecule, the “Q: Galium spurium, herbicidal effect grade” value (Galium spurium) was 4 (Herbicidal ratio of 70% or higher and lower than 90%), the “R: Veronica persica, herbicidal effect grade” value (Veronica persica) was 3 (Herbicidal ratio of 40% or higher and lower than 70%) and the “c: corn, effect on crop grade” value (corn [4]) was 3 (Herbicidal ratio of 40% or higher and lower than 70%). The “d: soybean, effect on crop grade” value (soybean) was 3 (Herbicidal ratio of 40% or higher and lower than 70%).
With `CC(=O)CC1CC(O)=C(c2c(C)cc(-c3ccc(C)cc3)cc2C)C1=O` (stereo not drawn) [7-007] the “Herbicidal effect grade, B” value (Scirpus juncoides [1]) was 1 (Herbicidal ratio of 5% or higher and lower than 20%), the “Herbicidal effect grade, C” value (Monochoria vaginalis) was 3 (Herbicidal ratio of 40% or higher and lower than 70%) and the “Herbicidal effect grade, B” value (Scirpus juncoides [2]) was 0 (Herbicidal ratio of 5% or lower (almost no effect)). For the same molecule, the “Herbicidal effect grade, I: Avena fatua” value (Avena fatua) was 0 (Herbicidal ratio of 5% or lower (almost no effect)), the “Effect on crop grade, c: corn” value (corn [3]) was 3 (Herbicidal ratio of 40% or higher and lower than 70%) and the “Effect on crop grade, b: directly sowed rice plant” value (from here on “Effect on crop grade, b”) (rice) was 4 (Herbicidal ratio of 70% or higher and lower than 90%). The “Effect on crop grade, g: rapeseed” value (rapeseed) was 0 (Herbicidal ratio of 5% or lower (almost no effect)), the “F: Digitaria ciliaris, herbicidal effect (criteria of Test Example 1)” value (Digitaria ciliaris) was 5 (Herbicidal ratio of 90% or more (almost completely withered)) and the “K: Lolium multiflorum Lam., herbicidal effect (criteria of Test Example 1)” value (Lolium multiflorum Lam.) was 5 (Herbicidal ratio of 90% or more (almost completely withered)). For the same molecule, the “O: Chenopodium album, herbicidal effect (criteria of Test Example 1)” value (Chenopodium album) was 2 (Herbicidal ratio of 20% or higher and lower than 40%), the “R: Veronica persica, herbicidal effect (criteria of Test Example 1)” value (Veronica persica) was 0 (Herbicidal ratio of 5% or lower (almost no effect)) and the “c: corn, effect on crop (criteria of Test Example 1)” value (corn [4]) was 5 (Herbicidal ratio of 90% or more (almost completely withered)). The “d: soybean, effect on crop (criteria of Test Example 1)” value (soybean) was 0 (Herbicidal ratio of 5% or lower (almost no effect)).
With `CC(=O)CC1CC(O)=C(c2c(C)cc(-c3ccc(Cl)cc3)cc2C)C1=O` (stereo not drawn) [7-008] the “Herbicidal effect grade, B” value (Scirpus juncoides [1]) was 2 (Herbicidal ratio of 20% or higher and lower than 40%), the “Herbicidal effect grade, C” value (Monochoria vaginalis) was 0 (Herbicidal ratio of 5% or lower (almost no effect)) and the “Herbicidal effect grade, B” value (Scirpus juncoides [2]) was 0 (Herbicidal ratio of 5% or lower (almost no effect)). The “Herbicidal effect grade, I: Avena fatua” value (Avena fatua) was 3 (Herbicidal ratio of 40% or higher and lower than 70%), the “Effect on crop grade, c: corn” value (corn [3]) was 4 (Herbicidal ratio of 70% or higher and lower than 90%) and the “Effect on crop grade, b” value (rice) was 5 (Herbicidal ratio of 90% or more (almost completely withered)). For the same molecule, the “Effect on crop grade, g: rapeseed” value (rapeseed) was 0 (Herbicidal ratio of 5% or lower (almost no effect)), the “F: Digitaria ciliaris, herbicidal effect (criteria of Test Example 1)” value (Digitaria ciliaris) was 5 (Herbicidal ratio of 90% or more (almost completely withered)) and the “K: Lolium multiflorum Lam., herbicidal effect (criteria of Test Example 1)” value (Lolium multiflorum Lam.) was 5 (Herbicidal ratio of 90% or more (almost completely withered)). For the same molecule, the “O: Chenopodium album, herbicidal effect (criteria of Test Example 1)” value (Chenopodium album) was 2 (Herbicidal ratio of 20% or higher and lower than 40%), the “R: Veronica persica, herbicidal effect (criteria of Test Example 1)” value (Veronica persica) was 3 (Herbicidal ratio of 40% or higher and lower than 70%) and the “c: corn, effect on crop (criteria of Test Example 1)” value (corn [4]) was 5 (Herbicidal ratio of 90% or more (almost completely withered)). The “d: soybean, effect on crop (criteria of Test Example 1)” value (soybean) was 0 (Herbicidal ratio of 5% or lower (almost no effect)).
In the case of `CC(=O)CC1CC(O)=C(c2c(C)cc(-c3ccccn3)cc2C)C1=O` (stereo not drawn) [7-012], the “Herbicidal effect grade, B” value (Scirpus juncoides [1]) is reported as 0 (Herbicidal ratio of 5% or lower (almost no effect)), the “Herbicidal effect grade, C” value (Monochoria vaginalis) is reported as 0 (Herbicidal ratio of 5% or lower (almost no effect)) and the “Herbicidal effect grade, B” value (Scirpus juncoides [2]) is reported as 0 (Herbicidal ratio of 5% or lower (almost no effect)). The “Herbicidal effect grade, I: Avena fatua” value (Avena fatua) was 0 (Herbicidal ratio of 5% or lower (almost no effect)), the “Effect on crop grade, c: corn” value (corn [3]) was 0 (Herbicidal ratio of 5% or lower (almost no effect)) and the “Effect on crop grade, b” value (rice) was 5 (Herbicidal ratio of 90% or more (almost completely withered)). The “Effect on crop grade, g: rapeseed” value (rapeseed) was 0 (Herbicidal ratio of 5% or lower (almost no effect)), the “F: Digitaria ciliaris, herbicidal effect (criteria of Test Example 1)” value (Digitaria ciliaris) was 5 (Herbicidal ratio of 90% or more (almost completely withered)) and the “K: Lolium multiflorum Lam., herbicidal effect (criteria of Test Example 1)” value (Lolium multiflorum Lam.) was 5 (Herbicidal ratio of 90% or more (almost completely withered)). The “O: Chenopodium album, herbicidal effect (criteria of Test Example 1)” value (Chenopodium album) was 3 (Herbicidal ratio of 40% or higher and lower than 70%), the “R: Veronica persica, herbicidal effect (criteria of Test Example 1)” value (Veronica persica) was 2 (Herbicidal ratio of 20% or higher and lower than 40%) and the “c: corn, effect on crop (criteria of Test Example 1)” value (corn [4]) was 3 (Herbicidal ratio of 40% or higher and lower than 70%). For the same molecule, the “d: soybean, effect on crop (criteria of Test Example 1)” value (soybean) was 2 (Herbicidal ratio of 20% or higher and lower than 40%).
`CC(=O)CC1CC(O)=C(c2c(C)cc(OCC(F)(F)F)cc2C)C1=O` (stereo not drawn) [7-015] was tested, and the “Herbicidal effect grade, B” value (Scirpus juncoides [1]) was 1 (Herbicidal ratio of 5% or higher and lower than 20%), the “Herbicidal effect grade, C” value (Monochoria vaginalis) was 2 (Herbicidal ratio of 20% or higher and lower than 40%) and the “Herbicidal effect grade, B” value (Scirpus juncoides [2]) was 0 (Herbicidal ratio of 5% or lower (almost no effect)). For the same molecule, the “Herbicidal effect grade, I: Avena fatua” value (Avena fatua) was 3 (Herbicidal ratio of 40% or higher and lower than 70%), the “Effect on crop grade, c: corn” value (corn [3]) was 5 (Herbicidal ratio of 90% or more (almost completely withered)) and the “Effect on crop grade, b” value (rice) was 5 (Herbicidal ratio of 90% or more (almost completely withered)). The “Effect on crop grade, g: rapeseed” value (rapeseed) was 2 (Herbicidal ratio of 20% or higher and lower than 40%), the “F: Digitaria ciliaris, herbicidal effect (criteria of Test Example 1)” value (Digitaria ciliaris) was 5 (Herbicidal ratio of 90% or more (almost completely withered)) and the “K: Lolium multiflorum Lam., herbicidal effect (criteria of Test Example 1)” value (Lolium multiflorum Lam.) was 5 (Herbicidal ratio of 90% or more (almost completely withered)). For the same molecule, the “O: Chenopodium album, herbicidal effect (criteria of Test Example 1)” value (Chenopodium album) was 3 (Herbicidal ratio of 40% or higher and lower than 70%), the “R: Veronica persica, herbicidal effect (criteria of Test Example 1)” value (Veronica persica) was 4 (Herbicidal ratio of 70% or higher and lower than 90%) and the “c: corn, effect on crop (criteria of Test Example 1)” value (corn [4]) was 5 (Herbicidal ratio of 90% or more (almost completely withered)). The “d: soybean, effect on crop (criteria of Test Example 1)” value (soybean) was 0 (Herbicidal ratio of 5% or lower (almost no effect)).
`CON=C(C)C(=O)C1CC(O)=C(c2c(C)cc(C)cc2C)C1=O` (stereo not drawn) [8-002] was tested, and the “Herbicidal effect grade, B” value (Scirpus juncoides [1]) was 0 (Herbicidal ratio of 5% or lower (almost no effect)), the “Herbicidal effect grade, C” value (Monochoria vaginalis) was 0 (Herbicidal ratio of 5% or lower (almost no effect)) and the “Herbicidal effect grade, B” value (Scirpus juncoides [2]) was 0 (Herbicidal ratio of 5% or lower (almost no effect)). The “Herbicidal effect grade, I: Avena fatua” value (Avena fatua) was 0 (Herbicidal ratio of 5% or lower (almost no effect)), the “Effect on crop grade, c: corn” value (corn [3]) was 0 (Herbicidal ratio of 5% or lower (almost no effect)) and the “Effect on crop grade, b” value (rice) was 0 (Herbicidal ratio of 5% or lower (almost no effect)). The “Effect on crop grade, g: rapeseed” value (rapeseed) was 0 (Herbicidal ratio of 5% or lower (almost no effect)), the “F: Digitaria ciliaris, herbicidal effect grade” value (Digitaria ciliaris) was 0 (Herbicidal ratio of 5% or lower (almost no effect)) and the “K: Lolium multiflorum Lam., herbicidal effect grade” value (Lolium multiflorum Lam.) was 5 (Herbicidal ratio of 90% or more (almost completely withered)). The “O: Chenopodium album, herbicidal effect grade” value (Chenopodium album) was 0 (Herbicidal ratio of 5% or lower (almost no effect)), the “R: Veronica persica, herbicidal effect grade” value (Veronica persica) was 0 (Herbicidal ratio of 5% or lower (almost no effect)) and the “c: corn, effect on crop grade” value (corn [4]) was 0 (Herbicidal ratio of 5% or lower (almost no effect)). The “d: soybean, effect on crop grade” value (soybean) was 0 (Herbicidal ratio of 5% or lower (almost no effect)).
